Test results taken from publication PMC6017838, “Synthesis and Anticandidal Activity of New Imidazole-Chalcones” (Molecules : A Journal of Synthetic Chemistry and Natural …, 2018).
Values after ≈ are worked out from the molar mass of the structure shown.

Key:
[1] = test system: C. krusei (ATCC 6258); experiment: Anticandidal activity, EUCAST EDef 7.1 broth dilution with resazurin; type: cell-based; settings: Pichia kudriavzevii, ATCC6258, RPMI pH 7, 24 h
Procedure: (§1) Synthesized compounds (3a–3o) were evaluated for anticandidal activity against C. albicans (ATCC 24433), C. krusei (ATCC 6258), C. parapsilosis (ATCC 22019), and C. glabrata (ATCC 90030). MIC50 values were determined via fluorometric measurements, using resazurin solution [24, 25]. Ketoconazole and fluconazole were used as a standard drug in the activity test.
(§2) Microbiological studies were performed according to the EUCAST definitive (EDef 7.1) method for C. albicans (ATCC 24433), C. krusei (ATCC 6258), C. parapsilosis (ATCC 22019), and C. glabrata (ATCC 90030). Fluconazole and ketoconazole were used as control drugs. Two MIC readings were carried out for each chemical agent. The yeasts were maintained in RPMI after overnight incubation at 37 °C. The inocula of test microorganisms was adjusted to match the turbidity of a MacFarland 0.5 standard tube as determined with a spectrophotometer, and the final inoculum size was 0.5–2.5 × 10^5 cfu/mL for the antifungal assay. Testing was carried out in RPMI at pH = 7, and the two-fold serial dilutions technique was applied. The last well on the microplates containing only inoculated broth was kept as a control, and the last well with no growth of microorganism was recorded to represent the MIC50 expressed in μg/mL. For the antifungal assays, the compounds were dissolved in DMSO. Further dilutions of the compounds and standard drugs in the test medium were prepared at the required quantities of 800, 400, 200, 100, 50, 25, 12.5, 6.25, 3.125, 1.5625, and 0.78 μg/mL concentrations RPMI. The completed plates were incubated for 24 h. At the end of the incubation, resazurin (20 µg/mL) was added into each well to control the growth in the wells. Completed plates were incubated for 2 h. MIC50 values were determined using a microplate reader at […].

[2] = test system: C. parapsilosis (ATCC 22019); experiment: as above; type: cell-based; settings: Lodderomyces parapsilosis, ATCC22019, RPMI pH 7, 24 h
Procedure: as §1, §2

[3] = test system: C. albicans (ATCC 24433); experiment: as above; type: cell-based; settings: Candida albicans, ATCC24433, RPMI pH 7, 24 h
Procedure: as §1, §2

[4] = test system: C. glabrata (ATCC 90030); experiment: as above; type: cell-based; settings: Nakaseomyces glabratus, ATCC90030, RPMI pH 7, 24 h
Procedure: as §1, §2

[5] = test system: ergosterol biosynthesis in C. krusei; experiment: Quantification of ergosterol level by LC-MS-MS; type: cell-based; settings: Pichia kudriavzevii, mean ± SD, quadruplicate
From the text: Sterols are neutral lipids of eukaryotic cells, among which ergosterol is the main constituent of fungal membranes. Ergosterol has biological functions such as membrane fluidity, regulation, activity and distribution of integral membrane proteins, and control of the cell cycle. The critical role of sterols in maintenance of cell membranes make ergosterol and its biosynthetic pathway essential for fungal growth, and a primary target for antifungal drugs to treat fungal infections. From this point of view, we performed an LCMSMS (Shimadzu LCMS 8040, Kyoto, Japan) method for quantitative determination of ergosterol content of C. krusei as reported in our recent study. Compounds 3a–3d, displaying the best anticandidal activity and low cytotoxic effect, and reference agents ketoconazole and fluconazole were tested at concentrations of 0.78–3.12 µg/mL. Ergosterol standard (Product No.: 45480, Sigma-Aldrich, Darmstadt, Germany) was used for the quantification of ergostrerol in samples, which were treated with reference agents and Compounds 3a–3d. Ergosterol quantity of the negative control was considered as 100%. Quadruplicate analyses were performed for all concentrations and the obtained data were expressed as mean ± standard deviation (SD) (Table 2).
Extraction of total sterols from C. krusei was performed as recorded by Breivik and Owades. Quantification of ergosterol level in this extract was carried out in accordance with our recently described method.

[6] = test system: NIH/3T3 mouse embryonic fibroblast cell line; experiment: MTT cytotoxicity test; type: cell-based; settings: NIH3T3, cytotoxic activity, NIH/3T3 cell line
Procedure: The main cause of failure in all stages of the new drug development process is toxicity. Early identification of toxicities of drug candidates is very important in terms of drug development studies. […] Cytotoxicity of selected compounds (3a–3d), displaying strong anticandidal activity and good predicted pharmacokinetics, was determined against NIH/3T3 mouse embryonic fibroblast cell lines (ATCC CRL1658).
Cytotoxicity was tested using the NIH/3T3 mouse embryonic fibroblast cell line (ATCC® CRL-1658™, London, UK). NIH/3T3 cells were incubated according to the supplier’s recommendations. NIH/3T3 cells were seeded at 1 × 10^4 cells into each well of the 96-well plates. The MTT assay was performed as previously described. The compounds were tested between 800 and 0.78 µg/mL concentrations. Inhibition % was calculated for each concentration according to the formula below, and IC50 values were determined by plotting a dose–response curve of inhibition % versus compound concentrations tested.
% inhibition = 100 − (mean sample × 100/mean solvent).

Row | SMILES | MIC50 [1] | MIC50 [2] | MIC50 [3] | MIC50 [4] | melting point | inhibition at 0.78 µg/mL [5] | inhibition at 1.56 µg/mL [5] | inhibition at 3.12 µg/mL [5] | IC50 [6]
1 | CCN1CCN(c2ccc(C=CC(=O)c3ccc(-n4ccnc4)cc3)cc2)CC1 [Compound 3m, 1-(4-(1H-Imidazol-1-yl)phenyl)-3-(4-(4-ethylpiperazin-1-yl)phenyl)prop-2-en-1-one] | 12.5 µg/mL (≈ 32.3 µM) | 25 µg/mL (≈ 64.7 µM) | 50 µg/mL (≈ 129 µM) | 12.5 µg/mL (≈ 32.3 µM) | 188 to 189 °C | – | – | – | –
2 | OC(Cn1cncn1)(Cn1cncn1)c1ccc(F)cc1F [Fluconazole, reference compound] | 1.56 µg/mL (≈ 5.09 µM) | 0.78 µg/mL (≈ 2.55 µM) | 0.78 µg/mL (≈ 2.55 µM) | 1.56 µg/mL (≈ 5.09 µM) | – | 61.7 ± 1.7% | 70.1 ± 3.22% | 82.1 ± 4.45% | –
3 | COc1ccc(Sc2ccc(C=CC(=O)c3ccc(-n4ccnc4)cc3)cc2)cc1 [Compound 3d, 1-(4-(1H-Imidazol-1-yl)phenyl)-3-(4-((4-methoxyphenyl)thio)phenyl)prop-2-en-1-one] | 1.56 µg/mL (≈ 3.78 µM) | 3.12 µg/mL (≈ 7.58 µM) | 1.56 µg/mL (≈ 3.78 µM) | 0.78 µg/mL (≈ 1.89 µM) | 177 to 179 °C | 52.5 ± 1.83% | 67.1 ± 2.7% | 74.1 ± 2.21% | 388 ± 20.2 µg/mL (≈ 940 µM)
4 | CC1CC(C)CN(c2ccc(C=CC(=O)c3ccc(-n4ccnc4)cc3)cc2)C1 (stereo not drawn) [Compound 3j, 1-(4-(1H-Imidazol-1-yl)phenyl)-3-(4-(3,5-dimethylpiperidin-1-yl)phenyl)prop-2-en-1-one] | 25 µg/mL (≈ 64.8 µM) | 25 µg/mL (≈ 64.8 µM) | 50 µg/mL (≈ 130 µM) | 12.5 µg/mL (≈ 32.4 µM) | 160 to 161 °C | – | – | – | –
5 | O=C(C=Cc1ccc(N2CCCCC2)cc1)c1ccc(-n2ccnc2)cc1 [Compound 3g, 1-(4-(1H-Imidazol-1-yl)phenyl)-3-(4-(piperidin-1-yl)phenyl)prop-2-en-1-one] | 25 µg/mL (≈ 69.9 µM) | 12.5 µg/mL (≈ 35 µM) | 50 µg/mL (≈ 140 µM) | 12.5 µg/mL (≈ 35 µM) | 198 to 199 °C | – | – | – | –
6 | CN1CCN(c2ccc(C=CC(=O)c3ccc(-n4ccnc4)cc3)cc2)CC1 [Compound 3l, 1-(4-(1H-Imidazol-1-yl)phenyl)-3-(4-(4-methylpiperazin-1-yl)phenyl)prop-2-en-1-one] | 25 µg/mL (≈ 67.1 µM) | 12.5 µg/mL (≈ 33.6 µM) | 50 µg/mL (≈ 134 µM) | 12.5 µg/mL (≈ 33.6 µM) | 205 to 207 °C | – | – | – | –
7 | CC1CCN(c2ccc(C=CC(=O)c3ccc(-n4ccnc4)cc3)cc2)CC1 [Compound 3i, 1-(4-(1H-Imidazol-1-yl)phenyl)-3-(4-(4-methylpiperidin-1-yl)phenyl)prop-2-en-1-one] | 12.5 µg/mL (≈ 33.6 µM) | 12.5 µg/mL (≈ 33.6 µM) | 50 µg/mL (≈ 135 µM) | 12.5 µg/mL (≈ 33.6 µM) | 189 to 191 °C | – | – | – | –
8 | O=C(C=Cc1ccc(N2CCOCC2)cc1)c1ccc(-n2ccnc2)cc1 [Compound 3f, 1-(4-(1H-Imidazol-1-yl)phenyl)-3-(4-morpholinophenyl)prop-2-en-1-one] | 12.5 µg/mL (≈ 34.8 µM) | 12.5 µg/mL (≈ 34.8 µM) | 50 µg/mL (≈ 139 µM) | 12.5 µg/mL (≈ 34.8 µM) | 214 to 215 °C | – | – | – | –
9 | CC1CCCN(c2ccc(C=CC(=O)c3ccc(-n4ccnc4)cc3)cc2)C1 (stereo not drawn) [Compound 3h, 1-(4-(1H-Imidazol-1-yl)phenyl)-3-(4-(3-methylpiperidin-1-yl)phenyl)prop-2-en-1-one] | 25 µg/mL (≈ 67.3 µM) | 12.5 µg/mL (≈ 33.6 µM) | 50 µg/mL (≈ 135 µM) | 12.5 µg/mL (≈ 33.6 µM) | 163 to 165 °C | – | – | – | –
10 | COc1ccc(Oc2ccc(C=CC(=O)c3ccc(-n4ccnc4)cc3)cc2)cc1 [Compound 3c, 1-(4-(1H-Imidazol-1-yl)phenyl)-3-(4-(4-methoxyphenoxy)phenyl)prop-2-en-1-one] | 0.78 µg/mL (≈ 1.97 µM) | 0.78 µg/mL (≈ 1.97 µM) | 1.56 µg/mL (≈ 3.93 µM) | 0.78 µg/mL (≈ 1.97 µM) | 168 to 170 °C | 71.1 ± 4.9% | 78.2 ± 2.7% | 84.3 ± 4.65% | 436 ± 1.03 µg/mL (≈ 1100 µM)
11 | CN(C)CCN1CCN(c2ccc(C=CC(=O)c3ccc(-n4ccnc4)cc3)cc2)CC1 [Compound 3n, 1-(4-(1H-Imidazol-1-yl)phenyl)-3-(4-(4-(2-(dimethylamino)ethyl)piperazin-1-yl)phenyl)prop-2-en-1-one] | 12.5 µg/mL (≈ 29.1 µM) | 12.5 µg/mL (≈ 29.1 µM) | 50 µg/mL (≈ 116 µM) | 12.5 µg/mL (≈ 29.1 µM) | 146 to 149 °C | – | – | – | –
12 | CN(C)CCCN1CCN(c2ccc(C=CC(=O)c3ccc(-n4ccnc4)cc3)cc2)CC1 [Compound 3o, 1-(4-(1H-Imidazol-1-yl)phenyl)-3-(4-(4-(3-(dimethylamino)propyl)piperazin-1-yl)phenyl)prop-2-en-1-one] | 12.5 µg/mL (≈ 28.2 µM) | 12.5 µg/mL (≈ 28.2 µM) | 50 µg/mL (≈ 113 µM) | 12.5 µg/mL (≈ 28.2 µM) | 138 to 141 °C | – | – | – | –
13 | CC(=O)N1CCN(c2ccc(OCC3COC(Cn4ccnc4)(c4ccc(Cl)cc4Cl)O3)cc2)CC1 (stereo not drawn) [Ketoconazole, reference compound] | 1.56 µg/mL (≈ 2.94 µM) | 1.56 µg/mL (≈ 2.94 µM) | 0.78 µg/mL (≈ 1.47 µM) | 1.56 µg/mL (≈ 2.94 µM) | – | 61 ± 2.94% | 73.1 ± 4.16% | 84.6 ± 3.01% | –
14 | O=C(C=Cc1ccc(N2CCCC2)cc1)c1ccc(-n2ccnc2)cc1 [Compound 3e, 1-(4-(1H-Imidazol-1-yl)phenyl)-3-(4-(pyrrolidin-1-yl)phenyl)prop-2-en-1-one] | 12.5 µg/mL (≈ 36.4 µM) | 12.5 µg/mL (≈ 36.4 µM) | 50 µg/mL (≈ 146 µM) | 12.5 µg/mL (≈ 36.4 µM) | 186 to 188 °C | – | – | – | –
15 | O=C(C=Cc1ccc(N2CCC(Cc3ccccc3)CC2)cc1)c1ccc(-n2ccnc2)cc1 [Compound 3k, 1-(4-(1H-Imidazol-1-yl)phenyl)-3-(4-(4-benzylpiperidin-1-yl)phenyl)prop-2-en-1-one] | 25 µg/mL (≈ 55.9 µM) | 12.5 µg/mL (≈ 27.9 µM) | 50 µg/mL (≈ 112 µM) | 25 µg/mL (≈ 55.9 µM) | 178 to 180 °C | – | – | – | –
